In patent US20250215029A1 (Recludix Pharma, Inc., priority 2022, published 2025) one finds IC50 data, which are given here for 17 compounds.

The structures appear in SMILES notation. Like-named read-outs stand apart in the source and are kept apart here. A value given as a limit tells only on which side of the number the result lay.

For test [1], the target named is T1, Recombinant STAT3 protein (STAT3 (G127-I722)) (Homo sapiens, UniProt P40763).
T1 construct: Recombinant STAT3 protein (STAT3 (G127-I722))
In words: STAT3 Fluorescence Polarization (FP) Assay. The following applies: probe 5-FAM-GpYLPQTV-NH2 2 nM, 45-minute incubation. The class given is binding. Summed up:
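Read-out is fluorescence polarization (mP) after 45 min at room temperature, with IC50 fitted by nonlinear regression against log compound concentration. Mixture: 25 nM STAT3 (G127-I722), 2 nM 5-FAM-GpYLPQTV-NH2 phosphopeptide, 10 mM HEPES pH 7.4 buffer, 1% DMSO.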
(Polarisation of emitted light reports the rotation of a fluorescent probe.)

In test [2] the target is T2, Recombinant STAT6 protein (STAT6 (W123-T658)) (Homo sapiens, UniProt P42226).
T2 construct: Recombinant STAT6 protein (STAT6 (W123-T658))
T2 sequence (P42226 123-658): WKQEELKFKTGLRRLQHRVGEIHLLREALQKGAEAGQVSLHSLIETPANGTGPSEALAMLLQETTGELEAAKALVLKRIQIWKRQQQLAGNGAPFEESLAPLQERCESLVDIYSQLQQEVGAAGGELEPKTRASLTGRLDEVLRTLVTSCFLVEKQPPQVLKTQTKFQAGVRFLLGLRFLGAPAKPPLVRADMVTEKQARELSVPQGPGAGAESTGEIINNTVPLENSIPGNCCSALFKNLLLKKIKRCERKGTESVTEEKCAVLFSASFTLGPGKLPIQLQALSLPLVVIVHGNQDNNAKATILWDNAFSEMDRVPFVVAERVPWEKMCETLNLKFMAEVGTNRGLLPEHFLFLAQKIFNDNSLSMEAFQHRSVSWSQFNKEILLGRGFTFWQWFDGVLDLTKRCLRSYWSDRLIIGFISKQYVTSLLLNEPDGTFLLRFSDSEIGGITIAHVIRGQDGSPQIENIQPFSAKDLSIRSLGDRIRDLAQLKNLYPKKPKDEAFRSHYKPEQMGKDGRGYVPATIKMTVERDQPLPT
Description: STAT6 Fluorescence Polarization (FP) Assay. The class given is binding. The following applies: probe 5-FAM-Ap[…]-NH2 2 nM, 45-minute incubation. In outline: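 Competitive FP binding: recombinant STAT6 (W123-T658) at 250 nM, labeled phosphotyrosine peptide at 2 nM, compounds at 1% DMSO, 45 min at RT before reading. IC50 values were obtained from nonlinear regression of mP versus log concentration.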

Setting [3] is: STAT3 (G127-I722) 25 nM, read-out: STAT3 (FP assay IC50 class).
Where [4] appears, read: STAT6 (W123-T658) 250 nM, read-out: STAT6 (FP assay IC50 class).

T1 sequence (P40763 127-722): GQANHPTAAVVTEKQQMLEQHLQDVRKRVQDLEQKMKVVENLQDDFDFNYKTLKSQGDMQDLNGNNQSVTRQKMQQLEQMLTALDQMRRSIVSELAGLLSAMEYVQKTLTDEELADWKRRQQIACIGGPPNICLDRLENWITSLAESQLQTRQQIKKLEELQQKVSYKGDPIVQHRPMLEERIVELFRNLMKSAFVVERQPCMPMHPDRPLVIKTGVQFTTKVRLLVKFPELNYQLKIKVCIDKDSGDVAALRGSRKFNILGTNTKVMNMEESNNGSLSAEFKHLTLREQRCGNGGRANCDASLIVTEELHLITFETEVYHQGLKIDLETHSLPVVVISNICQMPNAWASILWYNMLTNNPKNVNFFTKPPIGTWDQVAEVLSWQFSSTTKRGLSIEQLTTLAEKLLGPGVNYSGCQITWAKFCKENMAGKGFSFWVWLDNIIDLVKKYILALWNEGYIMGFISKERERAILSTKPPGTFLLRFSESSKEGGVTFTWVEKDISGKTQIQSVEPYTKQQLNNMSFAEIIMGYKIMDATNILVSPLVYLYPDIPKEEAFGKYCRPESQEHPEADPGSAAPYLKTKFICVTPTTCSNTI

The IC50 is the concentration at which inhibition is half-maximal. For `CO[C@@H]1CCN(c2ccncc2C2CN(C(=O)[C@@H]3CC[C@@H]4CCC[C@H](NC(=O)c5cc6cc(CP(=O)(O)O)ccc6s5)C(=O)N43)C2)C1` [Compound 688, ((2-(((3S,6S,9aS)-3-(3-(4-((R)-3-methoxypyrrolidin-1-yl)pyridin-3-yl)azetidine-1-carbonyl)-5-oxooctahydro-1H-pyrrolo[1,2-a]azepin-6-yl)carbamoyl)benzo [b]thiophen-5-yl)methyl) phosphonic acid], the IC50 in test [1] (setting [3]) is under 0.1 µM; in test [2] (setting [4]) it was 3 to 30 µM.

On to `O=C(N[C@H]1CCCC[C@H]2CC[C@@H](C(=O)NCc3cnc4[nH]ncc4c3)N2C1=O)c1cc2cc(C(F)(F)P(=O)(O)O)ccc2s1` [Compound 1108, ((2-(((3S,6S,10aS)-3-(((1H-pyrazolo[3,4-b]pyridin-5-yl)methyl)carbamoyl)-5-oxodecahydropyrrolo[1,2-a]azocin-6-yl)carbamoyl)benzo[b]thiophen-5-yl)difluoromethyl)phosphonic acid], for which the results for the IC50 in test [1] (setting [3]) and in test [2] (setting [4]) were 0.1 to 1 µM and 3 to 30 µM, respectively.

Turning to `O=C(N[C@H]1CCCC[C@H]2CC[C@@H](C(=O)N[C@H]3COC[C@H]3F)N2C1=O)c1cc2cc(C(F)(F)P(=O)(O)O)ccc2s1` (relative stereo) [Compound 1111, (difluoro(2-(((3S,6S,10aS)-3-(((rel-trans)-4-fluorotetrahydrofuran-3-yl)carbamoyl)-5-oxodecahydropyrrolo[1,2-a]azocin-6-yl)carbamoyl)benzo[b]thiophen-5-yl)methyl)phosphonic acid], the values for the IC50 in test [1] (setting [3]) and in test [2] (setting [4]) were 1 to 10 µM and 3 to 30 µM, respectively.

With `N#C[C@H]1[C@H](c2ccccc2)CN(C(=O)[C@@H]2CC[C@@H]3CCCC[C@H](NC(=O)c4cc5cc([C@@H](F)P(=O)(O)O)ccc5s4)C(=O)N32)C12CC2` (single isomer, unassigned) [Compound 836], the IC50 in test [1] (setting [3]) was 1 to 10 µM; in test [2] (setting [4]) it was at most 0.3 µM.

As to `O=C(N[C@H]1CCC[C@H]2CC[C@@H](C(=O)N3CC(c4nccc(O)n4)C3)N2C1=O)c1cc2cc(C(F)(F)P(=O)(O)O)ccc2s1` [Compound 809, (difluoro(2-(((3S,6S,9aS)-3-(3-(4-hydroxypyrimidin-2-yl)azetidine-1-carbonyl)-5-oxooctahydro-1H-pyrrolo[1,2-a]azepin-6-yl)carbamoyl)benzo [b]thiophen-5-yl)methyl) phosphonic acid], the results for the IC50 in test [1] (setting [3]) and in test [2] (setting [4]) were under 0.1 µM and 3 to 30 µM, respectively.

On to `Cn1cnnc1C1(O)CN(C(=O)[C@@H]2CC[C@@H]3CCC[C@H](NC(=O)c4cc5cc(C(F)(F)P(=O)(O)O)ccc5s4)C(=O)N32)C1` [Compound 807, (difluoro(2-(((3S,6S,9aS)-3-(3-hydroxy-3-(4-methyl-4H-1,2,4-triazol-3-yl)azetidine-1-carbonyl)-5-oxooctahydro-1H-pyrrolo[1,2-a]azepin-6-yl)carbamoyl)benzo [b]thiophen-5-yl)methyl) phosphonic acid], for which the results for the IC50 in test [1] (setting [3]) and in test [2] (setting [4]) were 0.1 to 1 µM and 0.3 to 3 µM, respectively.

With `COC1(c2nccn2C)CN(C(=O)[C@@H]2CC[C@@H]3CCC4(CC4)C[C@H](NC(=O)c4cc5cc(C(F)(F)P(=O)(O)O)ccc5s4)C(=O)N32)C1` [Compound 768, (difluoro(2-(((3′S,6′S,10a′S)-3′-(3-methoxy-3-(1-methyl-1H-imidazol-2-yl)azetidine-1-carbonyl)-5′-oxooctahydro-5′H-spiro[cyclopropane-1,8′-pyrrolo[1,2-a]azocin]-6′-yl)carbamoyl)benzo [b]thiophen-5-yl)methyl) phosphonic acid], the results for the IC50 in test [1] (setting [3]) and in test [2] (setting [4]) were 0.1 to 1 µM and 3 to 30 µM, respectively.

`CN(C)c1cccnc1C1CN(C(=O)[C@@H]2CC[C@@H]3CCC[C@H](NC(=O)c4cc5cc(C(F)P(=O)(O)O)ccc5s4)C(=O)N32)C1` (stereo partly drawn) [Compound 693, ((2-(((3S,6S,9aS)-3-(3-(3-(dimethylamino)pyridin-2-yl)azetidine-1-carbonyl)-5-oxooctahydro-1H-pyrrolo[1,2-a]azepin-6-yl)carbamoyl)benzo [b]thiophen-5-yl)fluoromethyl) phosphonic acid]: the IC50 in test [1] (setting [3]) lay within 1 to 10 µM; in test [2] (setting [4]), 3 to 30 µM.

For `CN(C)c1ncncc1C1CN(C(=O)[C@@H]2CC[C@@H]3CCC[C@H](NC(=O)c4cc5cc([C@H](F)P(=O)(O)O)ccc5s4)C(=O)N32)C1` (single isomer, unassigned) [Compound 665], the IC50 in test [1] (setting [3]) was under 0.1 µM; in test [2] (setting [4]), 3 to 30 µM.

For `Cc1ncncc1C1CN(C(=O)[C@@H]2CC[C@@H]3CCC[C@H](NC(=O)c4cc5cc(CP(=O)(O)O)ccc5s4)C(=O)N32)C1` [Compound 661, ((2-(((3S,6S,9aS)-3-(3-(4-methylpyrimidin-5-yl)azetidine-1-carbonyl)-5-oxooctahydro-1H-pyrrolo[1,2-a]azepin-6-yl)carbamoyl)benzo [b]thiophen-5-yl)methyl) phosphonic acid], the values for the IC50 in test [1] (setting [3]) and in test [2] (setting [4]) were 1 to 10 µM and 3 to 30 µM, respectively.

Turning to `COc1c(C2CN(C(=O)[C@@H]3CC[C@@H]4CCC[C@H](NC(=O)c5cc6cc(C(F)P(=O)(O)O)ccc6s5)C(=O)N43)C2)cnn1C` (stereo partly drawn) [Compound 629, (fluoro(2-(((3S,6S,9aS)-3-(3-(5-methoxy-1-methyl-1H-pyrazol-4-yl)azetidine-1-carbonyl)-5-oxooctahydro-1H-pyrrolo[1,2-a]azepin-6-yl)carbamoyl)benzo [b]thiophen-5-yl)methyl) phosphonic acid], the half-inhibitory concentration (IC50) in test [1] (setting [3]) fell in the range of 0.1 to 1 µM; in test [2] (setting [4]), 3 to 30 µM.

Regarding `COC(=O)N1CC(NC(=O)[C@@H]2CC[C@@H]3CCCC[C@H](NC(=O)c4cc5cc(C(F)P(=O)(O)O)ccc5s4)C(=O)N32)C1` (stereo partly shown) [Compound 523], the IC50 in test [1] (setting [3]) was in the range of 1 to 10 µM; in test [2] (setting [4]), 3 to 30 µM.

With `CC(NC(=O)[C@@H]1CC[C@@H]2CCCC[C@H](NC(=O)c3cc4cc(C(F)(F)P(=O)(O)O)ccc4s3)C(=O)N21)c1cc[nH]c(=O)c1` (stereo partly drawn) [Compound 792, (difluoro(2-(((3S,6S,10aS)-5-oxo-3-((1-(2-oxo-1,2-dihydropyridin-4-yl)ethyl)carbamoyl)decahydropyrrolo[1,2-a]azocin-6-yl)carbamoyl)benzo [b]thiophen-5-yl)methyl) phosphonic acid], the values for the IC50 in test [1] (setting [3]) and in test [2] (setting [4]) were 0.1 to 1 µM and 0.3 to 3 µM, respectively.

Take `N#C[C@H]1CN(C(=O)[C@@H]2CC[C@@H]3CC[C@H](O)C[C@H](NC(=O)c4cc5cc(C(F)(F)P(=O)(O)O)ccc5s4)C(=O)N32)C[C@@H]1c1ccccc1` [Compound 12, ((2-(((3S,6S,8S,10aR)-3-((3R,4S)-3-cyano-4-phenylpyrrolidine-1-carbonyl)-8-hydroxy-5-oxodecahydropyrrolo [1,2-a]azocin-6-yl)carbamoyl)benzo[b]thiophen-5-yl)difluoromethyl) phosphonic acid]: the IC50 was 1 to 10 µM in test [1] (STAT3 25 nM, read-out: STAT3 (FP assay IC50)) and at most 0.3 µM in test [2] (STAT6 250 nM, read-out: STAT6 (FP assay IC50)).

For `C/C1=C/[C@H]2CC[C@@H](C(=O)N3CC(c4cnccc4C)C3)N2C(=O)[C@@H](NC(=O)c2cc3cc(C(F)(F)P(=O)(O)O)ccc3s2)CC1` [Compound 643, (difluoro(2-(((3S,6S,10aR,Z)-9-methyl-3-(3-(4-methylpyridin-3-yl)azetidine-1-carbonyl)-5-oxo-1,2,3,5,6,7,8,10a-octahydropyrrolo[1,2-a]azocin-6-yl)carbamoyl)benzo [b]thiophen-5-yl)methyl) phosphonic acid], the IC50 in test [1] (setting [3]) was under 0.1 µM; in test [2] (setting [4]), 0.3 to 3 µM.

With `O=C(N[C@H]1CCC[C@H]2CC[C@@H](C(=O)N3CC(c4cnccc4OC4CCCC4)C3)N2C1=O)c1cc2cc(C(F)P(=O)(O)O)ccc2s1` (stereo partly drawn) [Compound 695, ((2-(((3S,6S,9aS)-3-(3-(4-(cyclopentyloxy)pyridin-3-yl)azetidine-1-carbonyl)-5-oxooctahydro-1H-pyrrolo[1,2-a]azepin-6-yl)carbamoyl)benzo [b]thiophen-5-yl)fluoromethyl) phosphonic acid], the 50% inhibitory concentration (IC50) in test [1] (setting [3]) is under 0.1 µM; in test [2] (setting [4]), 3 to 30 µM.

Consider `O=C(N[C@H]1CCC[C@H]2CC[C@@H](C(=O)N3CC(c4cncnc4N4CCC4)C3)N2C1=O)c1cc2cc([C@@H](F)P(=O)(O)O)ccc2s1` (single isomer, unassigned) [Compound 690], for which the half-maximal inhibitory concentration (IC50) in test [1] (setting [3]) was under 0.1 µM; in test [2] (setting [4]), 3 to 30 µM.
